Patent US11771685B2, “Compounds for the treatment of neurological or mitochondrial diseases” (MUSC FOUNDATION FOR RESEARCH DEVELOPMENT, priority 2018, dated 2023)
Where two headings read alike, the source gives them in different places.

Key:
[1] = In vivo pharmacokinetics in CD-1 mice; set-up: species or system mouse; details: for Vd: read-out: Vss
Method: PK studies on 3 and 25 were carried out in CD-1 mice. Three males were dosed via oral gavage needle for oral administration at 20 mg/kg (10 mL/kg) or via intravenous administration at 5 mg/kg (10 mL/kg). Blood samples were taken at time intervals between 5 min and 24 hr from each animal.
The PK studies of 1 were performed by WuXi AppTec and PK studies of 3 and 25 were performed by Touchstone Biosciences (Peng et al., 2006b; Peng et al., 2001; Peng et al., 2006a; Peng et al., 2009). Male CD-1 mice were fed a standard laboratory rodent diet and housed in individual cages on a 12 hr light and 12 hr dark cycle with room temperature maintained at 22±3° C. and relative humidity at 50±20%. Animals were typically fasted overnight before dosing, with food returned after the 6 hr blood samples were obtained. Water was provided ad libitum throughout the study. The dosing solution of each test compound was prepared in a desired oral or intravenous formulation. Three to four animals were dosed via gavage needle for oral administration at 10-20 mg/kg (10-20 mL/kg) or via tail vein injection for IV administration at 2-5 mg/kg (2-5 mL/kg). […] Fluid replacement (1.5 mL of 0.9% NaCl injection, USP) was administered subcutaneously once after the 2 hr blood sampling. Blood samples were collected in BD Microtainer tubes coated with anticoagulant, placed on ice, and within 30 min, centrifuged at 15,000 g for 5 min to obtain plasma samples. All plasma samples were stored at −70° C. until analysis.
Plasma samples were prepared as follows. Three volumes of acetonitrile containing internal standard was added to one volume of plasma to precipitate proteins. Samples were centrifuged (3000 g for 10 min) and supernatant removed for analysis by LC-MS/MS. Calibration standards and quality controls were made by preparation of a 1 mg/mL stock solution and subsequently a series of working solutions in methanol:water (1:1, v/v) which were spiked into blank plasma to yield a series of calibration standard samples in the range of 1.0 ng/mL to 10 μg/mL and quality control samples at three concentration levels (low, middle and high). All incurred PK/PD plasma samples were treated identically to the calibration standards and quality control samples. LC-MS-MS analysis was performed utilizing multiple reaction monitoring for detection of characteristic ions for each drug candidate, additional related analytes and internal standard.
Plasma concentrations were measured as described above to determine a concentration vs. time profile. The area under the plasma concentration vs time curve (AUC) was calculated using the linear trapezoidal method. Fitting of the data to obtain pharmacokinetic parameters was carried out using non-compartmental analysis. Key PK parameters reported following intravenous administration are as follows: terminal half-life t1/2, initial plasma concentration C0, area under the plasma concentration vs. time curve AUC, volume of distribution at steady-state Vss, total plasma clearance CLp, and mean residence time MRT. Key PK parameters reported following extravascular administration are as follows: terminal half-life t1/2, maximum plasma concentration Cmax, time to reach maximum plasma concentration tmax, area under the plasma concentration vs. time curve AUC, mean residence time MRT, and bioavailability F. All parameters are expressed for individual animals as well as mean, standard deviation, and coefficient of variation.

[2] = tested on: PTZ-induced seizure activity in zebrafish larvae; experiment: Zebrafish PTZ-induced seizure model; type: in vivo; details: for minimal effective concentration: 1 hr pre-treatment, 10 mM PTZ, read-out: Anti-seizure activity: lowest tested dose with significant difference vs PTZ-only group
Method: The zebrafish PTZ-induced seizure model was used to determine the most promising compounds' in vivo efficacy. Zebrafish larvae (7 dpf) were treated with the compound for 1 hr prior to inducing seizures with PTZ. As established by previous larval zebrafish anti-seizure studies (Rahn et al., 2014; Hansen et al., 2004; Baraban et al., 2005), total distance traveled by each fish after seizure induction was measured and used as a proxy for seizure activity. Following collection of locomotor data, observation of a startle response and visual inspection for abnormal morphology confirmed that alterations in swim activity were not caused by compound toxicity.
We induced seizures in 7 dpf zebrafish larvae by the addition of […] PTZ as originally developed by Baraban et al., 2005. In a 48-well plate, one 7-dpf zebrafish was added per well. Larvae were dosed with each compound at a sub-lethal dose 1 hr prior to PTZ treatment. Two control rows were included with each experiment—tank water only control and PTZ only. Seizures were induced by adding PTZ to wells to yield a final concentration of 10 mM. After 5 min, the plate was transferred to the Daniovision instrument (Noldus Information Technology) and the chamber light was turned on. After 2 min, MediaRecorder (Noldus) was used to record video for 15 min. A small number of videos were acquired at 25 frames per second, but the majority of data were acquired at 60 frames per second. […] Ethovision XT software (Noldus) was used to track the fish movement from the video images in order to calculate the total distance traveled over 15 min. All experimental comparisons were made between animals from the same clutch.
Statistical analyses were performed with GraphPad Prism 6 software. For the in vitro HT22 oxytosis assay, dose-response data were fit using GraphPad Prism's log(inhibitor) vs normalized response-variable slope parameters to determine EC50 values and 95% confidence intervals. For the zebrafish locomotive anti-seizure activity data, multiple comparisons were made using a one-way analysis of variance (ANOVA) with a Kruskal-Wallis Test, followed by the Dunn's Method to determine significant differences between all pairs or between control and experimental groups using the Dunn Method for Joint Ranking. Differences were considered statistically significant when p<0.05. Data from zebrafish experiments are represented as scatter dot plots of individual measurements, with means±standard deviation indicated by bars.

[3] = intraperitoneal 20 mg/kg, 5% DMSO: 95% neobee
[4] = intravenous 5 mg/kg, 20% DMA: 40% PEG300: 40% H2O
[5] = male, CD-1, mouse, plasma, ip, 20 mg/kg, intraperitoneal 20 mg/kg, 5% DMSO: 95% neobee
[6] = male, CD-1, mouse, plasma, iv, 5 mg/kg, intravenous 5 mg/kg, 20% DMA: 40% PEG300: 40% H2O
[7] = male, CD-1, mouse, plasma, iv, 5 mg/kg, intravenous 5 mg/kg, 20% DMA: 40% PEG300: 40% H2O, read-out: CLp
[8] = male, CD-1, mouse, plasma, iv, 5 mg/kg, 3 and 25 at 5 mg/kg
[9] = male, CD-1, mouse, plasma, po, 20 mg/kg, oral 20 mg/kg, 5% DMSO: 95% Neobee
[10] = male, CD-1, mouse, plasma, po, 20 mg/kg, oral 20 mg/kg, 20% DMA-40% PEG300-40% H2O
[11] = male, CD-1, mouse, plasma, intraperitoneal 20 mg/kg, 5% DMSO: 95% neobee, read-out: Clast
[12] = male, CD-1, mouse, plasma, oral 20 mg/kg, 5% DMSO: 95% Neobee, read-out: Clast
[13] = oral 20 mg/kg, 5% DMSO: 95% Neobee
[14] = oral 20 mg/kg, 20% DMA-40% PEG300-40% H2O

CCC#CCNC1=CC(=O)c2ccccc2C1=O [Compound 3, 2-(Pent-2-yn-1-ylamino)naphthalene-1,4-dione]
tlast [1, 3]: 24 h | Clast [1, 4]: 1.37 ng/mL | AUCinf/D ([1]; intravenous, 5 mg/kg): 89.6 h·(ng/mL)/(mg/kg) | tlast ([1]; intravenous, 5 mg/kg): 24 h | t1/2 ([1]; intravenous, 3 and 25 at 5 mg/kg, 5 mg/kg): ~15 h | Kp ([1]; male, CD-1, mouse, brain/plasma, listed under intravenous 5 mg/kg, read-out: Brain Plasma Ratio): 0.373 | AUC(0-t) [1, 5]: 463 ng·h/mL | half-life [1, 5]: 7.25 h | AUC(0-inf) [1, 6]: 448 ng·h/mL | AUC(0-t) [1, 6]: 421 ng·h/mL | MRT inf [1, 6]: 4.28 h | half-life [1, 6]: 14.7 h | clearance [1, 7]: 188 mL/min/kg | Vd [1, 6]: 48.6 L/kg | clearance ([1]; male, CD-1, mouse, plasma, iv, 5 mg/kg, intravenous, 3 and 25 at 5 mg/kg, read-out: CL): 188 mL/min/kg | Vd ([1]; male, CD-1, mouse, plasma, iv, 5 mg/kg, intravenous, 3 and 25 at 5 mg/kg): 48.6 L/kg | AUC(0-inf) [1, 8]: 448 ng·h/mL | AUC(0-t) [1, 8]: 421 ng·h/mL | MRT inf [1, 8]: 4.28 h | half-life [1, 8]: 14.7 h | AUC(0-inf) [1, 9]: 688 ng·h/mL | AUC(0-t) [1, 9]: 682 ng·h/mL | MRT inf [1, 9]: 5.71 h | Tmax [1, 9]: 4 h | half-life [1, 9]: 3.34 h | Cmax ([1]; male, CD-1, mouse, plasma, po, 20 mg/kg, oral 20 mg/kg, 5% DMSO: 95% Neobee, read-out: Cmax): 90.2 ng/mL | AUC(0-inf) [1, 10]: 992 ng·h/mL | AUC(0-t) [1, 10]: 738 ng·h/mL | MRT inf [1, 10]: 5.82 h | Tmax [1, 10]: 0.139 h | half-life [1, 10]: 5.27 h | Cmax ([1]; male, CD-1, mouse, plasma, po, 20 mg/kg, oral 20 mg/kg, 20% DMA-40% PEG300-40% H2O, read-out: Cmax): 394 ng/mL | concentration at 24 hr [1, 11]: 1.47 ng/mL | concentration at 24 hr ([1]; male, CD-1, mouse, plasma, intravenous, 5 mg/kg, read-out: Clast): 1.37 ng/mL | C0 ([1]; male, CD-1, mouse, plasma, intravenous, 3 and 25 at 5 mg/kg): 1520 ng/mL | concentration at 24 hr [1, 12]: 1.21 ng/mL | concentration at 8 hr ([1]; male, CD-1, mouse, plasma, oral 20 mg/kg, 20% DMA-40% PEG300-40% H2O, 8 hr post-dose, read-out: Clast): 33.1 ng/mL | F [1, 13]: 38.4% | tlast [1, 13]: 24 h | AUCinf/D [1, 14]: 49.6 h·(ng/mL)/(mg/kg) | Cmax/D [1, 14]: 19.8 (ng/mL)/(mg/kg) | F [1, 14]: 55.3% | tlast [1, 14]: 8 h | anti-seizure activity ([2]; 7 dpf larvae, PTZ): decrease seizures in a zebrafish model of epilepsy in a dose-dependent manner | minimal effective concentration ([2]; Danio rerio, 7 dpf larvae): ≤ 5 µM | inhibition in vivo at 5 µM ([2]; Danio rerio, 5 μM, read-out: reduction of PTZ-induced locomotor activity): 62% | inhibition in vivo at 10 µM ([2]; Danio rerio, 10 μM, read-out: reduction of PTZ-induced locomotor activity): 80% | inhibition in vivo at 20 µM ([2]; Danio rerio, 20 μM, read-out: reduction of PTZ-induced locomotor activity): 91%

CC(C)CCNC1=CC(=O)c2ccccc2C1=O [Compound 17, 2-(Isopentylamino)naphthalene-1,4-dione]
T1/2 [1, 3]: 3.38 h | tlast [1, 3]: 24 h | Clast [1, 4]: 0.154 ng/mL | T1/2 [1, 4]: 4.47 h | AUC(0-t) [1, 5]: 1720 ng·h/mL | AUC(0-inf) [1, 6]: 637 ng·h/mL | MRT inf [1, 6]: 0.874 h | clearance [1, 7]: 131 mL/min/kg | Vd [1, 6]: 6.89 L/kg | AUC(0-inf) [1, 9]: 914 ng·h/mL | MRT inf [1, 9]: 2.5 h | Tmax [1, 9]: 0.25 h | concentration at 24 hr [1, 11]: 1.95 ng/mL | C0 ([1]; male, CD-1, mouse, plasma, intravenous 5 mg/kg, 20% DMA: 40% PEG300: 40% H2O): 1910 ng/mL | concentration at 24 hr [1, 12]: 1.43 ng/mL | Cmax [1, 13]: 1025 ng/mL | F [1, 13]: 35.9% | t1/2 [1, 13]: 5.28 h | tlast [1, 13]: 24 h | minimal effective concentration ([2]; Danio rerio, 7 dpf larvae): 5 µM
